Source: US8247372B2 (University of Southampton, priority 2006, dated 2012)

Columns and labels:
[1] = system: MCF7 breast, A2780 ovarian and PC3 and LNCAP prostate cancer cells; test: CyQuant cell proliferation assay (Activity Assay 2); assay type: cell-based; details: Homo sapiens; cell line not given; read-out: Cell growth inhibition IC50
Method: Typically in this embodiment, said assay is performed using the CyQuant™ assay system (Moelcular Probes, Inc. USA).

[2] = system: HDAC (Hela Nuclear Extract); test: In vitro HDAC fluorescent activity assay (Activity Assay 1); details: read-out: Inhibition of HDAC activity IC50, compounds reduced with DTT prior to analysis
Method: In vitro HDAC assays were performed using a HDAC fluorescent activity assay kit (Biomol, UK) according to the manufacturer's instructions. Compounds were reduced prior to analysis; 1 mM compound was reduced with 30 mM DTT in DMSO overnight at room temperature, protected from light. Reactions were then set up in a 96-well plate. […] Serial dilutions were set up for each compound. Reactions containing Hela extract only and assay buffer only were also set up. 25 μl diluted Fluor de LYS™ substrate (100-fold in assay buffer) was added to each reaction, which were then incubated at 37° C. for 1 hour. The reaction was stopped by addition of 50 μl Fluor de LYS™ Developer (20-fold dilution in assay buffer, plus TSA diluted 100-fold). […] Inhibition of in vitro HDAC activity was determined for mean values of duplicate samples as percentages relative to HeLa extract only reactions. IC50 values were calculated using GraphPad Prism software.

[3] = system: TNFα secretion from PBMCs; test: TNF-α immunoassay in LPS-stimulated PBMCs (Activity Assay 3); details: normalized to 10 pg LPS alone (=100.00)
Method: TNF-α immunoassays were carried out using the Quantikine® Human TNF-α assay kit (R&D systems, Abingdon UK) according to the manufacturer's instructions. […] Compounds were added 1 hour later in volumes of 100 μl at 6× final concentration. Five hours later, lipopol ysaccharide (LSP, Sigma, Poole, UK) was added in a volume of 10 μl at 60× final concentration plates were mixed and left overnight at 37° C. 5% CO2. Plates were centrifuged and cell supernatant was transferred to a new plate. The Quantikine® assay reagents and standards were prepared according to the manufacturer instructions. The Quantikine® assay plate was prepared by adding 50 μl of assay dilutent RD1F into each well. This was followed by 200 μl of standard or 100 μl of calibrator dilutent plus 100 μl cell supernatant; this was incubated for 2 hours at room temperature (RT). The plate was washed using wash buffer 4 times. After the final wash the plate was tapped on clean paper towel to remove all residual buffer. 200 μl of TNF-α conjugate was added to each well and incubated for 1 hour at RT. The plate was then washed as before. The required amount of substrate solution was prepared by adding equal volumes of colour reagents A and B, protecting from light, 200 μl of this mix was added to each well and incubated for 20 mins at RT, protected from light. 50 μl of stop solution was added to each well in the same order as the substrate solution and the plate was read on a Biorad 680 96 well plate reader (Bio-Rad, Hemel Hempstead, UK) at 450 nm with λ correction at 570 nm. TNF-α levels were determined for mean values of duplicate samples using absorbance in nm, calibration zero values were subtracted from all results to correct for the addition of calibrator diluent in the assay.

Compound	IC50 [1] [nM]	IC50 [2] [nM]	also measured
CC(C)C[C@H]1NC(=O)C[C@H]2/C=C/CCSSC[C@@H](NC1=O)C(=O)N[C@H](C(C)C)C(O)CC(=O)O2 (stereo in doubt) [Compound 7C, (E)-(1S,5R,6R,9S,20R)-5-Hydroxy-20-isobutyl-6-isopropyl-2-oxa-11,12-dithia-7,19,22-triaza-bicyclo[7.7.6]docos-15-ene-3,8,18,21-tetraone]	0.23	11	–
CC(C)[C@H]1NC(=O)[C@H]2CSSCC/C=C/[C@H](CC(=O)N[C@H](Cc3ccccc3)C(=O)N2)OC(=O)C[C@@H]1O [Compound 7A]	0.07	3.3	TNFα Secretion (Normalized*) ([3]; Cells + 10 pg LPS + 0.025 nM compound): 63.90; TNFα Secretion (Normalized*) ([3]; Cells + 10 pg LPS + 0.05 nM compound): 58.12; TNFα Secretion (Normalized*) ([3]; Cells + 10 pg LPS + 0.1 nM compound): 45.45; TNFα Secretion (Normalized*) ([3]; Cells + 10 pg LPS + 0.2 nM compound): 31.11; TNFα Secretion (Normalized*) ([3]; Cells + 10 pg LPS + 0.4 nM compound): 18.66; TNFα Secretion (Normalized*) ([3]; Cells + 0.025 nM compound, no LPS): −0.26; TNFα Secretion (Normalized*) ([3]; Cells + 0.05 nM compound, no LPS): −0.06; TNFα Secretion (Normalized*) ([3]; Cells + 0.1 nM compound, no LPS): −0.08; TNFα Secretion (Normalized*) ([3]; Cells + 0.2 nM compound, no LPS): −0.03; TNFα Secretion (Normalized*) ([3]; Cells + 0.4 nM compound, no LPS): 0.13
CC(C)[C@H]1NC(=O)[C@H]2CSSCC/C=C/[C@H](CC(=O)N[C@H](Cc3cn(C(=O)OC(C)(C)C)c4ccccc34)C(=O)N2)OC(=O)C[C@@H]1O [Compound 7B, 3-((E)-(1S,5S,6R,9 S,20R)-5-Hydroxy-6-isopropyl-3,8,18,21-tetraoxo-2-oxa-11,12-dithia-7,19,22-triaza-bicyclo[7.7.6]docos-15-en-20-ylmethyl)-indole-1-carboxylic acid tert-butyl ester]	0.65	436	–
C[C@H]1NC(=O)C[C@H]2/C=C/CCSSC[C@@H](NC1=O)C(=O)N[C@H](Cc1ccccc1)[C@@H](O)CC(=O)O2 [Compound 7D, (E)-(1S,5S,6R,9S,20R)-6-Benzyl-5-hydroxy-20-methyl-2-oxa-11,12-dithia-7,19,22-triaza-bicyclo[7.7.6]docos-15-ene-3,8,18,21-tetraone]	55	18	–
O=C1C[C@H]2/C=C/CCSSC[C@@H](NC(=O)[C@@H](Cc3ccccc3)N1)C(=O)N[C@H](Cc1ccccc1)[C@@H](O)CC(=O)O2 [Compound 7E, (E)-(1S,5S,6R,9S,20R)-6,20-dibenzyl-5-hydroxy-2-oxa-11,12-dithia-7,19,22-triaza-bicyclo[7.7.6]docos-15-ene-3,8,18,21-tetraone]	3.2	30	–
